The values below come from US20130065847A1, “ENDOPARASITICIDAL COMPOSITIONS” (priority 2010, published 2013).

The test system of this assay is Cooperia Curticei. Description: In-vivo test on Cooperia curticei on sheep using peroral application. Particulars: Monepantel 0.625 mg/kg, Abamectin 0.05 mg/kg; for Efficacy [%]: 100×(C−T)/C of worm count means vs untreated control, days 14-17; for Efficacy [%] / log [Worm count] [geometric mean value] / Reduction worm count [factor] / Reduction log [worm count]: L4 stage, oral, combination 0.625 & 0.05 mg/kg; for Worm count [Geometric mean value]: experimentally induced infection, treated at L4 stage, single oral application, combination 0.625 & 0.05 mg/kg bodyweight, slaughter days 14-17 after treatment, untreated control 4266; for log [Worm count] [geometric mean value]: log transformed worm counts, untreated control 3.631; for Reduction worm count [factor]: observed; for Reduction worm count [factor] / Reduction log [worm count]: vs untreated control. The source says: In-Vivo Test on Cooperia Curticei on Sheep Using Peroral Application
The study concerned a blinded parallel-group efficacy study against the L4 stage of the subject nematodes. The experimental induced worm burdens of monepantel/abamectin combination treated animals were compared to those of an untreated control group and sheep treated animals with either monepantel or abamectin mono-formulations.
To this end the required larvae were generated first of all through culturing of characterized field isolates. Each animal then received the same dose of L3 (infective) larvae, and their larvae burdens were allowed time to mature. Once the larvae reached the L4 stage, the sheep were allocated to treatment groups 1, 2, 3 and 4 and treated as defined in the Table below:
Oral application using the above described formulations: […]
Two weeks after treatment (days 14-17) the sheep were slaughtered, their gastro-intestinal tracts recovered and processed for enumeration of total worm burdens. The primary measure of efficacy was calculated from the mean worm reduction in groups 2-4 when compared to the untreated control group 1. Efficacies were calculated using the formula
wherein C and T are the worm count means of the Control and Treated groups, respectively.
To this end, worm counts were log transformed as follows: […]

As to `C[C@](C#N)(COc1cc(C#N)ccc1C(F)(F)F)NC(=O)c1ccc(SC(F)(F)F)cc1` [Monepantel, N-((1S)-1-cyano-2-(5-cyano-2-trifluoro-methylphenoxy)-1-methylethyl)-4-trifluoromethylsulfanylbenzamide], the “Efficacy [%]” value turned out to be 66.0%, the “Worm count [Geometric mean value]” value was determined as 1453, the “log [Worm count] [geometric mean value]” value came to 3.165 and the “Reduction worm count [factor]” value is recorded as approximately 2.9 factor. Also, the “Reduction log [worm count]” value was −0.466.

On to abamectin, for which the “Efficacy [%]” value came out at 68.3%, the “Worm count [Geometric mean value]” value is on record as 1352, the “log [Worm count] [geometric mean value]” value was determined as 3.134 and the “Reduction worm count [factor]” value is reported as approximately 3.1 factor. For the same molecule, the “Reduction log [worm count]” value is given as −0.497.
